# Data published in paper PMC6391272, “Rex in Caldicellulosiruptor bescii: Novel regulon members and its effect on the production of ethanol and overflow metabolites” (MicrobiologyOpen, 2018).
# Target: T1, Rex (recombinant Rex, rRex) (Caldicellulosiruptor bescii, UniProt B9MPL7)
# T1 construct: E. coli T7 Express; purified with IMPACT kit protocol
# T1 sequence (B9MPL7 1-217): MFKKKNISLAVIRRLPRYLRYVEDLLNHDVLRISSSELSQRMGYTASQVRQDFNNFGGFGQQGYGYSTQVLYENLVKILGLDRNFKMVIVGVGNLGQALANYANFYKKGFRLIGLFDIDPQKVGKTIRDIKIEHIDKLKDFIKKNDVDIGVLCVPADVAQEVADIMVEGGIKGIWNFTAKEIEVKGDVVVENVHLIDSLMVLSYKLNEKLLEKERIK
# Assay: electromobility shift assay (biotin-labelled […] bp operator dsDNA)
# Conditions: room temperature, 30 min; loss of operator DNA binding; NADH/NAD+ cofactor pool 1-100 umol/L
structure (smiles),measurement,value
NC(=O)C1=CN([C@@H]2O[C@H](COP(=O)(O)OP(=O)(O)OC[C@H]3O[C@@H](n4cnc5c(N)ncnc54)[C@H](O)[C@@H]3O)[C@@H](O)[C@H]2O)C=CC1 [NADH],electromobility shift assay (biotin-labelled 50 bp operator dsDNA),DNA binding by Rex is disrupted by NADH and is sensitive to NADH/NAD ^+ ratio
